For 2 molecules, logP results are on record in patent US8921567B2, “Process for preparing N-substituted 1H-pyrazole-5-carbonylchloride compounds” (BASF SE, priority 2011, dated 2014).

The data set is described as follows: log P determination via capillary electrophorese on a cePro9600 from CombiSep. Format: physicochemical. To be noted: pH = 10.0. As to the method:
log P determinations were performed via capillary electrophorese on a cePro9600™ from CombiSep.

Consider `Cc1cccc(C(=O)N=S2CCSC2)c1NC(=O)c1cc(C(F)(F)F)nn1-c1ncccc1Cl` (centres unmarked) [Example 208], for which the logP entry was “logP: 2.2 [pH = 10.0];”.
The same measure for `Cc1cc(Cl)cc(C(=O)N=S(C(C)C)C(C)C)c1NC(=O)c1cc(C(F)(F)F)nn1-c1ncccc1Cl` [compound 24]: “logP: 3.3 [pH = 10.0];”.
